One block for each compound: values may come before it.
What was measured:
[1] = test system: PC-3 prostate cancer cells; experiment: PC3 cell viability and proliferation assay (MTS); type: cell-based; settings: Homo sapiens, 72 hours, mean of 3 independent experiments, read-out: PC3 GI50 D3
Procedure: PC-3 prostate cancer cells were obtained from ATCC, and maintained in F-12K medium containing 7% FBS and 1% penicillin/streptomycin. Cells were incubated at 37° C. in a humidified atmosphere containing 5% CO2.
Cell viability was assayed using the MTS technique in 96-well culture plates (CellTiter 96® Aqueous Non-Radioactive Cell Proliferation Assay, Promega) according to the manufacturer's instructions. MTS (3-(4,5-dimethyl-thiazol-2-yl)-5-(3-carboxymethoxyphenyl)-2-(4-sulfophenyl)-2H-tetrazolium) is a MTT-derived tetrazolium that is reduced in metabolically active cells into a soluble, cell-permeant formazan. The amount of formazan, detected by its absorbance at 492 nm is proportional to the number of living, metabolically active cells.
2×10^3 PC3 cells were seeded per well. 24 hours later, the medium was changed and the cells treated in triplicate with the following concentrations of each compound: 10 μM-3.33 μM-1.11 μM-370 nM-123 nM-41 nM-14 nM and 5 nM. The compounds were diluted in 100% DMSO, whose final concentration on cells was kept at 0.5%.
Cells were incubated with the compounds for 72 hours, and their viability then assayed by the addition of MTS for 2 hours. Absorbance at 492 nm was measured directly from the 96-well culture plates. GI50 (Growth Inhibition 50) concentrations for each compound were calculated using a sigmoidal variable slope fit (Prism 4.0, Graphpad Softwares). Values represent mean of 3 independent experiments.

USP5 = target: T1, USP5 (Homo sapiens, UniProt P45974); experiment: USP5 activity assay (Ub-AMC); type: biochemical; settings: 400 nM Ub-AMC, 300 pM enzyme, 30 min pre-incubation, 60 min at 37° C., sigmoidal fit; read-out: USP5 (inhibition of cysteine protease activity)
T1 sequence (P45974 1-858): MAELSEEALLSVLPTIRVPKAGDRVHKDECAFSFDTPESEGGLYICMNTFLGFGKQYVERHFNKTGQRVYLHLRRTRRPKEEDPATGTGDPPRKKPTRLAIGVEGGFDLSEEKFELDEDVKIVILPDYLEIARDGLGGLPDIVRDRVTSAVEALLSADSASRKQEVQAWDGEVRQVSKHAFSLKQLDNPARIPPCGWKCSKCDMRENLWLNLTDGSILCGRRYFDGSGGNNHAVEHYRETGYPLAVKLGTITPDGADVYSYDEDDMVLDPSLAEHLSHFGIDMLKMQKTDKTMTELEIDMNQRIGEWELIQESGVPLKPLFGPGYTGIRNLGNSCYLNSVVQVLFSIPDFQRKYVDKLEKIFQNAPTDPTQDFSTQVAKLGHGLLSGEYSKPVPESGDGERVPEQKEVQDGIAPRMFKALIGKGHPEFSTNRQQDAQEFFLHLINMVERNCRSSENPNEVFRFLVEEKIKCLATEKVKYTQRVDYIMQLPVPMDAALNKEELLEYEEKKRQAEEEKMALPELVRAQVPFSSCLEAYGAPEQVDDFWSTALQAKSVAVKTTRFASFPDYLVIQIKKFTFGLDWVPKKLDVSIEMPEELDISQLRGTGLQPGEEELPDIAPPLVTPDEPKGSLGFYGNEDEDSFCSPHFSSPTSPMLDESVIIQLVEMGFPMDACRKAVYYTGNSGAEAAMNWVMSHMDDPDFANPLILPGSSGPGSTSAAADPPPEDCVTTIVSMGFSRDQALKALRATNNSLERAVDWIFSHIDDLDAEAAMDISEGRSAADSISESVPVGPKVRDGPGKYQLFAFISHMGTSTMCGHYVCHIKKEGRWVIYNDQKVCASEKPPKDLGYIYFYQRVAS
Procedure: USP5 was diluted in USP buffer (50 mM Tris HCl; 0.5 mM EDTA; 5 mM DTT; 0.01% Triton X-100; Bovine Serum Albumin 0.05 mg.ml^−1 pH7.6). Compounds stocks (100 mM) were stored at −20° C. in DMSO.
Reactions were performed as duplicates in Black LJL 96 well plates (HE microplates; Molecular Devices; 20 μl final reaction volume). The substrate concentration for USP5 was 400 nM Ub-AMC (Boston Biochem). The concentrations of the enzyme (USP5) in specificity assays was 300 pM. The concentrations were determined in order to perform specificity assays under initial velocities at fixed substrate concentration. Compounds were pre-incubated with enzymes for 30 minutes at 25° C. Reactions were initiated by addition of substrate to the plates containing the enzymes (+/−compounds) diluted in assay buffer. Reactions were incubated for 60 minutes at 37° C. Reactions were stopped by adding acetic acid (100 mM final). Readings were performed on a Pherastar Fluorescent Reader (BMG). λ Emission 380 nm; λ Excitation=460 nm. Data (mean values +/−standard deviation) were analyzed as % of control (no compound) and plotted as percentage versus the Log of the compound concentration using GraphPad (Prism). Data were fitted to a sigmoidal model (variable slope).

SMILES: C=CCON=C1c2ccccc2-c2nn3nnnc3nc21 (mixture of isomers) [compound 6, 1,2,3,3a,4,10-hexaaza-cyclopenta[b]fluoren-9-one O-allyl-oxime]
GI50 [1]: 180 nM

SMILES: C=CCON=C1c2ccccc2-c2nn3c(C)nnc3nc21 (mixture of isomers) [5b, 3-Methyl-1,2,3a,4,10-pentaaza-cyclopenta[b]fluoren-9-one O-allyl-oxime]
IC50 (USP5): 1150 nM
GI50 [1]: 6690 nM

SMILES: C=CCON=C1c2ccccc2-c2nn3c(CCCC)nnc3nc21 (mixture of isomers) [5d, 3-Butyl-1,2,3a,4,10-pentaaza-cyclopenta[b]fluoren-9-one O-allyl-oxime]
IC50 (USP5): 1420 nM
GI50 [1]: 2790 nM

SMILES: ON=C1c2ccccc2-c2nn3nnnc3nc21 (mixture of isomers) [compound 7, 1,2,3,3a,4,10-hexaaza-cyclopenta[b]fluoren-9-one oxime]
GI50 [1]: 466 nM

SMILES: CON=C1c2ccccc2-c2nn3c(C)nnc3nc21 (mixture of isomers) [5a, 3-Methyl-1,2,3a,4,10-pentaaza-cyclopenta[b]fluoren-9-one O-methyl-oxime]
IC50 (USP5): 1800 nM
GI50 [1]: 6150 nM

The remaining lines, values ahead:

IC50 (USP5): 470 nM
GI50 [1]: 502 nM
SMILES: c1ccc(OCCCON=C2c3ccccc3-c3nn4nnnc4nc32)cc1 (mixture of isomers) [8c, 1,2,3,3a,4,10-Hexaaza-cyclopenta[b]fluoren-9-one O-(3-phenoxy-propyl)-oxime]

IC50 (USP5): 1200 nM
GI50 [1]: 8400 nM
SMILES: C=CCON=C1c2ccccc2-c2nn3c(CC)nnc3nc21 (mixture of isomers) [10f, 3-Ethyl-1,2,3a,4,10-pentaaza-cyclopenta[b]fluoren-9-one O-allyl-oxime]

GI50 [1]: 457 nM
SMILES: COCCON=C1c2ccccc2-c2nn3nnnc3nc21 (mixture of isomers) [8b, 1,2,3,3a, 4,10-Hexaaza-cyclopenta[b]fluoren-9-one O-(2-methoxy-ethyl)-oxime]

IC50 (USP5): 54000 nM
GI50 [1]: 391 nM
SMILES: CCCCCCCCCCON=C1c2ccccc2-c2nn3nnnc3nc21 (mixture of isomers) [8a, 1,2,3,3a, 4,10-Hexaaza-cyclopenta[b]fluoren-9-one O-decyl-oxime]
